Data reported in paper PMC7946228, “Discovery of novel candidates for anti-liposarcoma therapies by medium-scale high-throughput drug screening” (PLoS ONE, 2021).
Numbered stars: 1 amine (or outer) side, 2 acyl side, 3 side chain; on linkers, the order of the positions; unused ones are H or OH. Bridge positions count the residues as written; N and C are the ends. Square brackets hold non-standard residues; d marks the D form. Peptide text beside a SMILES is read from it. I, II: the chains in the order shown. Actinocin(9to1) = Cc1c2oc3c(C)ccc(C(=O)[*:1])c3nc-2c(C(=O)[*:2])c(N)c1=O; NMeV = CN[C@H](C(=O)O)C(C)C; Sar = CNCC(=O)O

System: 13 liposarcoma cell lines
Test: High-throughput drug screen, ATP viability 72h
Type: cell-based, human
Details: five concentrations 1 nM to 10 μM, combined viability (AUC)
Experimental: 349 compounds from anti-cancer Selleck Chemical library were pre-aliquoted at five concentrations, increasing in 10-fold steps from 1 nM to 10 μM, in 384-well plates using an Echo Liquid Handler. Each plate also contained positive (benzethonium chloride, BzCl) and negative (DMSO only) controls. Additional drugs were added manually to the same plates at the same concentration range. Cells were seeded directly into the plates containing the drugs. After 72h viability was assessed through levels of ATP, with Cell Titer Glow assay (Promega, Wisconsin, United States) and luminescence quantified using a […]. Data from drug screens were analyzed with R version 3.4.0 (R_Core_Team, 2017) normalized to median positive (BzCl) and median negative (DMSO) controls using formula: (drug-BzCl)/(DMSO–BzCl), with total viability calculated as the area under the curve over all five drug concentrations, adjusted using qualitatively constrained quantile smoothing splines, R package ‘cobs’ version 1.3–3 [22]. The raw values of positive (BzCl) and median negative (DMSO) controls on each assay plate were aggregated and used to calculate z’-factors, as a measure of assay performance and data quality, with a z’-factor > 0.5 representing acceptable data. For two cases where the z’-factor was below 0.5, strictly standardized mean difference (SSMD) was additionally calculated, giving the population value (β) of SSMD -4 and -5, respectively, indicating good quality. Data visualization was done in R using ‘ComplexHeatmaps’ package version 1.20.0 [24]. The same assay was also used when assessing viability of non-tumor cells and tumor explants.
Thirteen liposarcoma cell lines representing dedifferentiated, well-differentiated, pleomorphic and unspecified subtype liposarcomas were grown in 384-well format in the presence one of the 353 compounds, each at five 10-fold increasing concentrations (from 1 nM to 10 μM) for 72h, after which their viability was scored by measuring ATP levels. The viability was normalized to positive and negative controls and was calculated as sum of viabilities obtained with all the five used concentrations. That means if, e.g., the compound was killing cells at all the tested concentrations, the viability value would be 0, and if the compound was not killing cells at any tested concentrations, the value would be […]. If the compound was reducing the viability to 50% at 100 nM, and to 0% at 1 and 10 μM, the total viability would be calculated as 2 (see scheme on the top of Fig 1A). Within the tested concentration range, the majority of the drugs had very little effect on viability regardless of the target or pathway (Figs 1A and S1). The drug screen included 28 chemotherapeutic drugs currently in clinical use in Norway for the treatment of sarcoma.

| SMILES | effect on viability in the drug screen |
| --- | --- |
| CC(C)C[C@H](NC(=O)[C@H](Cc1ccccc1)NC(=O)c1cnccn1)B(O)O [Bortezomib] | top candidates from the screen |
| Cc1c2oc3c(C)ccc(C(=O)N[C@@H]4C(=O)N[C@H](C(C)C)C(=O)N5CCC[C@H]5C(=O)N(C)CC(=O)N(C)[C@@H](C(C)C)C(=O)O[C@@H]4C)c3nc-2c(C(=O)N[C@@H]2C(=O)N[C@H](C(C)C)C(=O)N3CCC[C@H]3C(=O)N(C)CC(=O)N(C)[C@@H](C(C)C)C(=O)O[C@@H]2C)c(N)c1=O [actinomycin D] (I: T[dV]P[Sar][NMeV] / II: T[dV]P[Sar][NMeV]; ester I:1-I:C, II:1-II:C; linker I:N-II:N via Actinocin(9to1)) | significant impact on viability |
| CC(=O)O[C@@]12CO[C@@H]1C[C@H](O)[C@@]1(C)C(=O)[C@H](O)C3=C(C)[C@@H](OC(=O)[C@H](O)[C@@H](NC(=O)OC(C)(C)C)c4ccccc4)C[C@@](O)([C@@H](OC(=O)c4ccccc4)[C@H]21)C3(C)C [docetaxel] | significant impact on viability |
| Nc1ccn([C@@H]2O[C@H](CO)[C@@H](O)C2(F)F)c(=O)n1 [gemcitabine] | significant impact on viability |
| Cc1ccc(C(=O)N(CCCN)[C@@H](c2nc3cc(Cl)ccc3c(=O)n2Cc2ccccc2)C(C)C)cc1 [ispinesib] | top candidates from the screen |
| CC(=O)O[C@H]1C(=O)[C@@]2(C)[C@H]([C@H](OC(=O)c3ccccc3)[C@]3(O)C[C@H](OC(=O)[C@H](O)[C@@H](NC(=O)c4ccccc4)c4ccccc4)C(C)=C1C3(C)C)[C@]1(OC(C)=O)CO[C@@H]1C[C@@H]2O [paclitaxel] | significant impact on viability |
| CC[C@]1(O)C[C@H]2CN(CCc3c([nH]c4ccccc34)[C@@](C(=O)OC)(c3cc4c(cc3OC)N(C=O)[C@H]3[C@@](O)(C(=O)OC)[C@H](OC(C)=O)[C@]5(CC)C=CCN6CC[C@]43[C@@H]65)C2)C1 [vincristine] | significant impact on viability |
